Values of other authors in patent publication US20120107430A1, “PRE-PROCEDURE MEAL REGIMEN” (priority 2009, published 2012).

Key:
colon [1] = details: N=50 per arm; senna two doses 158 mg each, 8 hours apart; sodium phosphate 48 grams
colon [2] = details: either diet (light breakfast then clear liquids, or normal breakfast, low residue lunch, then clear liquids); 200 patients

O=P(O)(O)O [sodium phosphate]
patients reporting good tolerance (colon [1]): 28 patients
patients reporting poor tolerance (colon [1]): 12 patients
good to excellent preparation (colon [2]): 93-95%
